Our source for the MIC, HC50 and EC50 values is ChEMBL document CHEMBL5380796, “Small Molecular Mimetics of Antimicrobial Peptides as a Promising Therapy To Combat Bacterial Resistance” (J Med Chem, 2023).

Converted amounts (≈) assume the structure as drawn. Non-standard residues stand in square brackets, D forms with d. Residues, ends and D or L forms follow the SMILES beside them. Dip = N[C@H](C(=O)O)C(c1ccccc1)c1ccccc1; 2Nal = N[C@@H](Cc1ccc2ccccc2c1)C(=O)O A value given as a limit tells only on which side of the number the result lay.

The subject of data set [1] is Staphylococcus aureus. The experiment in a line: Antibacterial activity against Staphylococcus aureus assessed as bacterial growth inhibition. The class given is functional.
The test system of data set [2] is Escherichia coli. The experiment in a line: Antibacterial activity against Escherichia coli assessed as bacterial growth inhibition. It is filed as functional.
The next data set relates to Micrococcus luteus. The experiment in a line: Antibacterial activity against Micrococcus luteus DSM 1790 assessed as bacterial growth inhibition by microdilution assay. The class given is functional. On the technique in general: In broth dilution the organism is exposed to a series of concentrations in liquid medium.
Data set [3] deals with Staphylococcus aureus. The experiment in a line: Antibacterial activity against Staphylococcus aureus ATCC 25923 assessed as bacterial growth inhibition. The class given is functional.
Data set [4] has as its system Staphylococcus aureus. In words: Antibacterial activity against Staphylococcus aureus ATCC 25923 assessed as bacterial growth inhibition by microdilution assay. It is filed as functional.
The test system of data set [5] is Escherichia coli. In words: Antibacterial activity against Escherichia coli assessed as bacterial growth inhibition measured after 24 hrs by CLSI based micro broth double dilution method. The class given is functional.
In data set [6] the test system is Staphylococcus aureus. In words: Antibacterial activity against Staphylococcus aureus assessed as bacterial growth inhibition measured after 24 hrs by CLSI based micro broth double dilution method. It is filed as functional.
For data set [7], the system named is Staphylococcus epidermidis. In words: Antibacterial activity against methicillin-resistant Staphylococcus epidermidis RP62A assessed as bacterial growth inhibition. It is filed as functional.
Another data set concerns Clostridioides difficile. The experiment in a line: Antibacterial activity against Clostridium difficile UK6 assessed as bacterial growth inhibition. The class given is functional.
In data set [8] the test system is Pseudomonas aeruginosa. The experiment in a line: Antibacterial activity against Pseudomonas aeruginosa ATCC 27853 assessed as bacterial growth inhibition. Particulars: ATCC27853. It is filed as functional.
For data set [9], the system named is Klebsiella pneumoniae. The experiment in a line: Antibacterial activity against Klebsiella pneumoniae ATCC 13383 assessed as bacterial growth inhibition. It is filed as functional.
In a further data set the test system is Enterococcus. The experiment in a line: Antibacterial activity against […] assessed as bacterial growth inhibition. It is filed as functional.
Data set [10] deals with Escherichia coli. The experiment in a line: Antibacterial activity against Escherichia coli ATCC 25922 assessed as bacterial growth inhibition. It is filed as functional.
Data set [11] relates to Staphylococcus aureus. The experiment in a line: Antibacterial activity against methicillin-resistant Staphylococcus aureus ATCC 33591 assessed as bacterial growth inhibition. The class given is functional.
Data set [12] relates to Pseudomonas aeruginosa. The experiment in a line: Antibacterial activity against Pseudomonas aeruginosa ATCC 27853 assessed as bacterial growth inhibition incubated for 12 to 16 hrs by microtiter plate reader based analysis. It is filed as functional. Particulars: time 12-16 hrs.
For data set [13], the system named is Escherichia coli. The experiment in a line: Antibacterial activity against Escherichia coli ATCC 25922 assessed as bacterial growth inhibition incubated for 12 to 16 hrs by microtiter plate reader based analysis. The class given is functional. Particulars: time 12-16 hrs.
Data set [14] deals with Staphylococcus aureus. In words: Antibacterial activity against methicillin-resistant Staphylococcus aureus ATCC 33592 assessed as bacterial growth inhibition incubated for 12 to 16 hrs by microtiter plate reader based analysis. The class given is functional. Particulars: time 12-16 hrs.
The nature of data set [15]: Hemolytic activity in human RBC incubated for 10 mins by absorbance based analysis. It is filed as toxicity, cell-based, Erythrocyte. Particulars: red blood cells (erythrocytes).
Another data set concerns Enterococcus faecalis. In words: Antibacterial activity against vancomycin- resistant Enterococcus faecalis ATCC 700802 assessed as bacterial growth inhibition incubated for 12 to 16 hrs by microtiter plate reader based analysis. The class given is functional. Particulars: ATCC700802, time 12-16 hrs.
For data set [16], the system named is Staphylococcus epidermidis. In words: Antibacterial activity against methicillin-resistant Staphylococcus epidermidis RP62A assessed as bacterial growth inhibition incubated for 12 to 16 hrs by microtiter plate reader based analysis. Particulars: time 12-16 hrs. The class given is functional.
Data set [17] relates to Pseudomonas aeruginosa. The experiment in a line: Antibacterial activity against Pseudomonas aeruginosa assessed as bacterial growth inhibition. It is filed as functional.
Data set [18] deals with Klebsiella pneumoniae. In words: Antibacterial activity against Klebsiella pneumoniae assessed as bacterial growth inhibition. It is filed as functional.
A short description of data set [19]: Cytotoxicity against mouse 3T3 cells assessed as reduction in cell viability. Particulars: NIH3T3 cells. The class given is toxicity, cell-based.
Data set [20] in a line: Cytotoxicity against human HepG2 cells assessed as reduction in cell viability. It is filed as toxicity, cell-based.
Data set [21] deals with Staphylococcus aureus. The experiment in a line: Antibacterial activity against methicillin-resistant Staphylococcus aureus assessed as bacterial growth inhibition by broth microdilution method. It is filed as functional.
Data set [22] has as its system Escherichia coli. In words: Antibacterial activity against Escherichia coli assessed as bacterial growth inhibition by broth microdilution method. It is filed as functional.

For orientation: MIC means the least concentration at which growth counts as inhibited. With `CC(C)CCOC(=O)[C@H](CC(C)C)NC(=O)[C@@H](CCCNC(=N)N)NC(=O)[C@@H](CCCCN)NC(=O)COc1ccc2ccccc2c1-c1c(OCCC(C)C)ccc2ccccc12`, in the data set on Staphylococcus aureus [1], the MIC came to 2 µg/mL (≈ 2.27 µM).
`CC(C)(C)c1cc(C(C)(C)C)c2[nH]c(C(C)(C)C)c(C[C@H](N)C(=O)N[C@@H](CCCNC(=N)N)C(=O)NCc3ccccc3)c2c1`: the MIC with Staphylococcus aureus [1] came out at 2.5 µg/mL (≈ 4.05 µM); in the data set with Escherichia coli [2] it was 10 µg/mL (≈ 16.2 µM).
For `COC(=O)[C@H](CCCNC(=N)N)NC(=O)[C@H](Cc1c(C(C)(C)C)[nH]c2c(C(C)(C)C)cc(C(C)(C)C)cc12)NC(=O)[C@@H](N)CCCNC(=N)N`, in that order: 5 µg/mL (≈ 7.15 µM) and 20 µg/mL (≈ 28.6 µM).
`CC(C)(C)c1ccc(CC(N)C(=O)NC(CCCNC(=N)N)C(=O)Nc2cc(NC(=O)C(CCCNC(=N)N)NC(=O)C(N)Cc3ccc(C(C)(C)C)cc3)cc(C(N)=O)c2)cc1` (centres undefined): the figures for the minimal inhibitory concentration (MIC) in the data set on Micrococcus luteus, in the data set with Staphylococcus aureus [3] and in the data set on Staphylococcus aureus [4] were 1.9 µg/mL, 1.9 µg/mL (≈ 2.18 µM) and 1.9 µg/mL, respectively.
Regarding `CCCOc1c2cc(C[N+](C)(C)C)cc1Cc1cc(C[N+](C)(C)C)cc(c1OCCC)Cc1cc(C[N+](C)(C)C)cc(c1OCCC)Cc1cc(C[N+](C)(C)C)cc(c1OCCC)C2`, the MIC with Escherichia coli [5] and with Staphylococcus aureus [6] was 16 µg/mL each time.
As to `CCCCCCN1C(=N)N(CC(=O)Nc2cccc(NC(=O)CN3C[C@H](Cc4ccccc4)N(CCCCCC)C3=N)c2)C[C@@H]1Cc1ccccc1`, the MIC in data set [7] stood at 0.75 µg/mL (≈ 1.06 µM); in the data set with Clostridioides difficile it was 1 µg/mL (≈ 1.41 µM); in the data set on Pseudomonas aeruginosa [8], 6 µg/mL (≈ 8.49 µM); in the data set on Klebsiella pneumoniae [9], 1.5 µg/mL (≈ 2.12 µM); in the data set with Enterococcus, 0.75 µg/mL (≈ 1.06 µM); with Escherichia coli [10], 1.5 µg/mL (≈ 2.12 µM). In addition, the MIC in the data set with Staphylococcus aureus [11] amounted to 0.16 µg/mL (≈ 0.226 µM).
What is called HC50 is the concentration that lyses half of the red blood cells. Turning to `CCCCCCCCCCCCCCCC(=O)N[C@@H](CCCCN)C(=O)N[C@@H](Cc1ccccc1)CN(CC(N)=O)C(=O)CCCN`, the MIC worked out at 2 µg/mL (≈ 3.04 µM) with Pseudomonas aeruginosa [12]; 4 µg/mL (≈ 6.07 µM) in the data set on Escherichia coli [13]; 2 µg/mL (≈ 3.04 µM) in the data set with Staphylococcus aureus [14]; 2 µg/mL (≈ 3.04 µM) in the data set on Enterococcus faecalis; 2 µg/mL (≈ 3.04 µM) in [16]. The HC50 at 10 min in data set [15] was 150 µg/mL.
As to `CC(C)NC(=O)N[C@H](CNC(=O)N[C@@H](CCCCN)CNC(=N)N[C@H](CNC(=O)N[C@H](CNC(=O)N[C@@H](CCCCN)CNC(=O)N[C@H](CNC(=O)N[C@@H](CCCCN)CNC(N)=O)Cc1c[nH]c2ccccc12)C(C)C)Cc1c[nH]c2ccccc12)C(C)C`, the MIC came to 32 µg/mL (≈ 25.4 µM) in the data set on Staphylococcus aureus [1], 64 µg/mL (≈ 50.8 µM) in the data set on Escherichia coli [2] and 256 µg/mL (≈ 203 µM) with Pseudomonas aeruginosa [17].
On to `CC(C)(C)c1cc(NC(=O)c2cc(OCCN)cc(C(=O)Nc3cc(C(C)(C)C)cc(NC(=O)[C@H](N)CCCNC(=N)N)c3SCCN)c2)c(SCCN)c(NC(=O)[C@H](N)CCCNC(=N)N)c1`, for which the MIC in the data set on Staphylococcus aureus [1] and with Escherichia coli [2] was 12.5 µg/mL (≈ 12.8 µM) throughout.
In the case of `CC(=O)c1cccc(C(=O)Nc2cc(C(C)(C)C)cc(NC(=O)c3cccc(C(=O)Nc4cc(C(C)(C)C)cc(N)c4SCCN)c3)c2SCCN)c1`, the MIC was 66 µg/mL (≈ 87.4 µM) in the data set on Klebsiella pneumoniae [18] and 19 µg/mL (≈ 25.2 µM) with Escherichia coli [2].
On to `COC(=O)[C@@H]1CCCCc2cc3ccccc3c(c2OC)-c2c(OC)c(cc3ccccc23)CC(NC(C)=O)C(=O)N[C@H](CCCCN)C(=O)N1` (some centres undefined), for which the MIC in the data set on Staphylococcus aureus [1] turned out to be 15 µg/mL (≈ 21.5 µM).
A word on the EC50: it is the concentration at which the effect is half-maximal. Regarding `COc1cc(OC)c(C(=O)Nc2cc(C(F)(F)F)cc(NC(=O)CCCCNC(=N)N)c2SCCN)cc1C(=O)Nc1cc(C(F)(F)F)cc(NC(=O)CCCCNC(=N)N)c1SCCN`, the EC50 in [19] and in [20] was more than 2000 µg/mL each time. In addition, the results for the MIC in the data set with Staphylococcus aureus [1], with Escherichia coli [2] and with Pseudomonas aeruginosa [17] were 0.2 µg/mL (≈ 0.205 µM), 3.1 µg/mL (≈ 3.18 µM) and 13 µg/mL (≈ 13.3 µM), respectively.
For the compound `N=C(N)NCCC[C@@H]1NC(=O)[C@H](CCCNC(=N)N)NC(=O)[C@H](CCCNC(=N)N)NC(=O)[C@H](Cc2ccc3ccccc3c2)NC(=O)[C@H](Cc2ccc3ccccc3c2)NC(=O)[C@H](Cc2ccc3ccccc3c2)NC(=O)[C@H](CCCNC(=N)N)NC1=O` (cyclo(RRRR[2Nal][2Nal][2Nal])), the results for the MIC in the data set on Staphylococcus aureus [21] and in the data set with Escherichia coli [22] were 3.1 µg/mL (≈ 2.55 µM) and 12.5 µg/mL (≈ 10.3 µM), respectively.
For `N=C(N)NCCC[C@@H]1NC(=O)[C@H](CCCNC(=N)N)NC(=O)[C@H](CCCNC(=N)N)NC(=O)[C@H](C(c2ccccc2)c2ccccc2)NC(=O)[C@H](C(c2ccccc2)c2ccccc2)NC(=O)[C@H](C(c2ccccc2)c2ccccc2)NC(=O)[C@H](CCCNC(=N)N)NC1=O` (cyclo(RRRR[Dip][Dip][Dip])), in that order: 3.1 µg/mL (≈ 2.39 µM) and 12.5 µg/mL (≈ 9.66 µM).
As to `CC(C)(C)c1cc(C(C)(C)C)c2[nH]c(C(C)(C)C)c(C[C@H](NC(=O)[C@@H](N)CCCNC(=N)N)C(=O)N[C@@H](CCCNC(=N)N)C(=O)NCCc3ccccc3)c2c1` [LTX-109], the MIC came out at 2.5 µg/mL (≈ 3.17 µM) with Staphylococcus aureus [1] and 7.5 µg/mL (≈ 9.52 µM) with Escherichia coli [2].
For H-WRWRW-NH2, in that order: 10 µg/mL and 15 µg/mL.
